Results on 2 compounds are retold here after patent publication US20110028686A1, “Protein binding miniature proteins” (Yale University, priority 2000, published 2011).

Data set [1] concerns the target T1, GST-MDM2 (Homo sapiens, UniProt Q00987). Kind of data set: Fluorescence polarization, affinity for GST-MDM2. The format is binding. The following applies: fluorescein-labeled peptide; read-out: equilibrium dissociation constant (Kd) of the peptide·GST-MDM2 complex.
Method: (§3) Residues in yellow and blue stabilize the aPP hydrophobic core; those in red contribute to the binding of MDM2.
(§4) Each point represents the average of at least three trials. Error bars represent the standard error. Kd values were calculated as described in Heyduk, et al., Proc Natl Acad Sci USA 1990, 87, 1744. […] Ki was calculated using the Cheng-Prusoff equation.
The subject of data set [2] is GST-MDM2. Kind of data set: Fluorescence polarization, affinity for GST-MDM2. The following applies: calmodulin, Fos, carbonic anhydrase, protein kinase A vs GST-MDM2. It is filed as binding, human. Background: Polarisation of emitted light reports the rotation of a fluorescent probe.
Method: as §3, §4
The target in another data set is carbonic anhydrase. Briefly: Fluorescence polarization specificity, carbonic anhydrase. The format is binding. How it is done: (§1) FIG. 3—Fluorescence polarization analysis of the affinity of GST-MDM2 for selected peptides and the affinity of pP53-05 for selected proteins. […] Each point represents the average of at least three trials. Error bars represent the standard error. Kd values were calculated as described in Heyduk, et al., Proc Natl Acad Sci USA 1990, 87, 1744. […] Plot illustrates the fraction of p53AD-Flu (10 nM) bound to GST-MDM2 (400 nM) at equilibrium as a function of added pP53-05 (4.5 μM-0.18 μM). Ki was calculated using the Cheng-Prusoff equation.
(§2) The specificity of pP53-05 was evaluated by measuring its affinity for several receptors and enzymes that bind helical or hydrophobic peptides or small molecules (FIG. 3).

For a further data set, the target named is T2, bZIP region of Fos (Homo sapiens, UniProt P01100).
T2 construct: the bZIP region of Fos, which forms dimeric complexes with other bZIP proteins
Kind of data set: Fluorescence polarization specificity, Fos. The format is binding. How it is done: as §1, §2

For the next data set, the target named is protein kinase A (Homo sapiens, UniProt P17612). Kind of data set: Fluorescence polarization specificity, protein kinase A. It is filed as binding. How it is done: as §1, §2
The target in a further data set is T3, Calmodulin (Homo sapiens, UniProt P0DP23).
T3 construct: purchased Sigma
Kind of data set: Fluorescence polarization specificity, calmodulin. The format is binding. How it is done:
as §1, §2

The target of data set [3] is T1, GST-MDM2. Kind of data set: Competition fluorescence polarization, p53AD-Flu bound to GST-MDM2. The format is binding. Conditions: p53AD-Flu 10 nM, GST-MDM2 400 nM; Cheng-Prusoff.
Method: as §4
The nature of data set [4]: Circular dichroism thermal denaturation. Conditions: far UV circular dichroism at 222 nm. It is filed as physicochemical. How it is done: Spectra were acquired in 0.5×PBS at 25° C. using a Aviv Model 62DS spectrometer. […] Each data set represents the average of 10 scans. Spectra were background corrected but were not smoothed. (b) Temperature dependence of the CD spectrum of pP53-05. ΘMRE is in units of deg·cm^2·dmol^−1.
Circular dichroism spectra were recorded in PBS on an Aviv 202 CD Spectrometer and were background corrected but not smoothed. Wavelength scans were performed at 4° C. between 200 and 260 nm at 1 nm intervals with a recording time of five seconds at each interval. Bak (72-94), 4099, 4100, 4101, 4102 were used at concentrations of 0.028 mM, 0.0069 mM, 0.0119 mM, 0.014 mM and 0.016 mM respectively. Thermal denaturation curves were measured at 222 nm between 4-98° C. with 2° C. steps and one minute equilibration at each temperature. Peptides were used at the highest concentrations used for the wavelength scans described above. Mean residue elliptcity and percent helicity were calculated from the value at 222 nm after background correction.
On the technique in general: Circular dichroism is the unequal absorption of left and right circularly polarised light.

The target of a further data set is KIX. The following applies: various techniques; isothermal titration calorimetry for KID(129-149)^P; read-out: previously reported Kd of KID^P·KIX complexes; cited from earlier work.

The Kd is the constant that tells how readily two partners part at equilibrium. By Ki is commonly meant the dissociation constant of the complex between target and ligand, obtained from inhibition or displacement. A low value points to tighter binding.

Ends that are not written are not given here. Peptide text beside a SMILES is read from it.

T1 sequence (Q00987 whole entry): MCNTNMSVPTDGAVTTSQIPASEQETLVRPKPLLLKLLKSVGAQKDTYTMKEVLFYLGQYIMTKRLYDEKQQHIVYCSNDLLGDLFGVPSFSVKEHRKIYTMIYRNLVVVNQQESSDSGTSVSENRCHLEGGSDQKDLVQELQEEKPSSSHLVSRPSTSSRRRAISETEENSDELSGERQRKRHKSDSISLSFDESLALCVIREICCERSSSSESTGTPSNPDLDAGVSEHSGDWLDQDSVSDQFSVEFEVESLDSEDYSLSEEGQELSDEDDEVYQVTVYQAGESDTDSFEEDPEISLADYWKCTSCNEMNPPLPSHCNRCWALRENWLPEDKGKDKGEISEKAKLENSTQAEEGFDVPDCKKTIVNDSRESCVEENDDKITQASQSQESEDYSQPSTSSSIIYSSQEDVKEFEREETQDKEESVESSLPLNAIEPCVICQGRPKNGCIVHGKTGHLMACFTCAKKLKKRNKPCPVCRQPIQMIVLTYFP
T2 sequence (P01100 137-200 limits assumed): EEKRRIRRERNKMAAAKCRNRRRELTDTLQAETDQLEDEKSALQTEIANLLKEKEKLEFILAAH
Sequence of KIX (Q92793 587-673 limits assumed): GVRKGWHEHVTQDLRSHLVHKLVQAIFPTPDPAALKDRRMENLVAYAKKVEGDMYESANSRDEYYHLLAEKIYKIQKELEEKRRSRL

As for `CC[C@H](C)[C@H](NC(=O)[C@H](CC(C)C)NC(=O)[C@H](CC(=O)O)NC(=O)[C@H](CCC(=O)O)NC(=O)[C@@H](NC(=O)[C@@H]1CCCN1C(=O)[C@H](C)NC(=O)[C@H](CC(=O)O)NC(=O)[C@H](CC(=O)O)NC(=O)CNC(=O)[C@@H]1CCCN1C(=O)[C@H](Cc1ccc(O)cc1)NC(=O)[C@@H](NC(=O)[C@@H]1CCCN1C(=O)[C@H](CCC(N)=O)NC(=O)[C@H](CO)NC(=O)[C@@H]1CCCN1C(=O)CN)[C@@H](C)O)C(C)C)C(=O)N[C@@H](CCCNC(=N)N)C(=O)N[C@@H](Cc1ccccc1)C(=O)N[C@@H](CCCCN)C(=O)N[C@@H](Cc1ccccc1)C(=O)N[C@@H](CC(C)C)C(=O)N[C@@H](CC(C)C)C(=O)N[C@@H](CCC(N)=O)C(=O)N[C@@H](Cc1c[nH]c2ccccc12)C(=O)N[C@@H](Cc1ccc(O)cc1)C(=O)N[C@@H](CC(C)C)C(=O)N[C@@H](CC(C)C)C(=O)N[C@@H](C)C(=O)N[C@@H](CC(C)C)C(N)=O` [pP53-05] (H-GPSQPTYPGDDAPVEDLIRFKFLLQWYLLAL-NH2; N-terminus and C-terminus assumed), the Kd on GST-MDM2 [1] was 0.099 ± 0.011 µM; at carbonic anhydrase, 298 µM; at bZIP region of Fos it was 42 µM; at protein kinase A, 16 µM; at Calmodulin, more than 275 µM. Besides, the “ΔΔG between stabilities of non-target protein complexes and pP53-05·GST-MDM2” value in the data set on GST-MDM2 [2] was 2.8-4.4 kcal·mol^−1. Also, on GST-MDM2 [3], the inhibition constant Ki was determined as 0.722 µM. In addition, the “Tm, cooperative thermal melt” value in data set [4] stood at 47 °C.

Consider “KID(129-149)^P: phosphorylated CREB KID residues 129-149, literature (SDAPGVPRIEEEKSEEETSAP; also: phosphorylated, sites not given here; UniProt P16220 129-149, looked up, fragment)”, for which, on KIX, the Kd is 80 µM.
